Calls of active or inactive are those of the source. The calls are words filed in the database; no cut-off is given here.
What was measured:
Rattus norvegicus [1] = assay: In vivo minimum effective dose for anti-Parkinsonian activity in 6-OHDA rat model upon p.o. administration; Not active.; format: functional
Rattus norvegicus [2] = assay: Minimum effective dose required to measure neuropathic pain (In vivo) by formalin test upon p.o. […] in rat; format: functional; conditions: po, read-out: MED
Rattus norvegicus [3] = assay: In vivo minimum effective dose inhibition of neuropathic pain (formalin test) upon p.o. administration; Not active.; format: functional, organism-based
Rattus norvegicus [4] = assay: Minimum effective dose required to measure anti-parkinson's activity (In vivo) upon p.o. […] in rat; format: functional; conditions: po, read-out: MED
[5] = molecular target: Glutamate NMDA receptor; Grin1/Grin2b (Rattus norvegicus, UniProt P35439+Q00960); assay: Binding affinity against NR1A/2B receptor in rat brains by [3H]ifenprodil displacement.; format: tissue-based, Brain
[6] = Binding affinity against NR1A/2B receptor using [3H]-ifenprodil radioligand in native rat brains; NA means not active

Glutamate NMDA receptor; Grin1/Grin2b, sequence (Q00960 whole entry, other chains not shown): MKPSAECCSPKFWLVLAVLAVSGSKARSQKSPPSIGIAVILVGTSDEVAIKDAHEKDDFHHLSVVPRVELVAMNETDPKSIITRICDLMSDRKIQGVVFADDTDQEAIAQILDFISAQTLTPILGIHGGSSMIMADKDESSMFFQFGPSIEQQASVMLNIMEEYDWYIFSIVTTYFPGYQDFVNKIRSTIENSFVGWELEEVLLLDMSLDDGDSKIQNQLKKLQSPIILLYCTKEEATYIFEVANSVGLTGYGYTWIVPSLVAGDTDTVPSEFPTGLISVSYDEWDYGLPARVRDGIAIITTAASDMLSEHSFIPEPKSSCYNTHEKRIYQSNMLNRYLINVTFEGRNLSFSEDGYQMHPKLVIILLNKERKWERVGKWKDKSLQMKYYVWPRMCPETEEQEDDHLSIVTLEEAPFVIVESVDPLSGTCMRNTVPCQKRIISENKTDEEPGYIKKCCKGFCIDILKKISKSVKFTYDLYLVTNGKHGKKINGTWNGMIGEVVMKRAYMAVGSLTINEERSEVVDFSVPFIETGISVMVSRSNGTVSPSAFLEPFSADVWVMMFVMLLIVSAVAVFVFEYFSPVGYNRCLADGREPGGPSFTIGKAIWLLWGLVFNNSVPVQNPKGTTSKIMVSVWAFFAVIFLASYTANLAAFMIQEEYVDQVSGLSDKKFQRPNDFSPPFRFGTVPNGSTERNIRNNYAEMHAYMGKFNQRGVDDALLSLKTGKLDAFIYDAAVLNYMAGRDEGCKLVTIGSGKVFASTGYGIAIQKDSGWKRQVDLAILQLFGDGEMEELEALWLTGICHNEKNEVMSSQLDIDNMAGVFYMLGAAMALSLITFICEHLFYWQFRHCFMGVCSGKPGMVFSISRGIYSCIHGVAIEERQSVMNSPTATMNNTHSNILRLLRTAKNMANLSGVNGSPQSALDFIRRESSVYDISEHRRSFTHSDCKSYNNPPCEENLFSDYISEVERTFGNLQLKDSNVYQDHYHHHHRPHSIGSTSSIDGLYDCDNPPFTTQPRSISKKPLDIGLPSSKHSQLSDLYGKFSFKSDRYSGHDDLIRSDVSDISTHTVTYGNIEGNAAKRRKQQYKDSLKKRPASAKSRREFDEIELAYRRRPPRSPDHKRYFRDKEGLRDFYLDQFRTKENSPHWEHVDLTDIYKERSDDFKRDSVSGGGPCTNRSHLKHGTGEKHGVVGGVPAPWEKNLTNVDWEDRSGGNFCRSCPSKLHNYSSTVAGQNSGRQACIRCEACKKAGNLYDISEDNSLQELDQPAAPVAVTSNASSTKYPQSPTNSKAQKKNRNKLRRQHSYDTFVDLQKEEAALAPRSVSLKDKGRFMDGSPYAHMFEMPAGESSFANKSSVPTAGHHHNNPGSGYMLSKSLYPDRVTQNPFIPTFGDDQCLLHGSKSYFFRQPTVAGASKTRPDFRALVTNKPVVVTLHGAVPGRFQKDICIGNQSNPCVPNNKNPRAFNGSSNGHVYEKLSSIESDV

Row | IC50 [5] | SMILES | MED (Rattus norvegicus [1]) | MED (Rattus norvegicus [3]) | other results
1 | – | Oc1nc2ccc(C#CCN3CCC(Cc4ccc(F)cc4)CC3)cc2o1 | inactive | – | minimal effective dose (Rattus norvegicus [2]): 30 mg/kg
2 | – | COc1cc2[nH]c(O)nc2cc1C#CCN1CCC(Cc2ccc(F)cc2)CC1 | inactive | inactive | –
3 | – | Cc1cc(C#CCN2CCC(Cc3ccc(F)cc3)CC2)cc2[nH]c(O)nc12 | – | inactive | minimal effective dose (Rattus norvegicus [4]): 30 mg/kg
4 | – | CC1CC(Cc2ccc(F)cc2)CCN1CC#Cc1ccc2[nH]c(O)nc2c1 (stereo not drawn) | inactive | inactive | –
5 | 104 nM | CC1CC(Cc2ccc(F)cc2)CCN1CC#Cc1ccc2[nH]c(=O)[nH]c2c1 (stereo not drawn) | – | – | –
6 | – | CC(C#Cc1ccc2[nH]c(O)nc2c1)N1CCC(Cc2ccc(F)cc2)CC1 (stereo not drawn) | inactive | inactive | –
7 | 100 nM | CC(C#Cc1ccc2[nH]c(=O)[nH]c2c1)N1CCC(Cc2ccc(F)cc2)CC1 (stereo not drawn) | – | – | –
8 | – | Oc1nc2ccc(C#CCN3CCC(O)(Cc4ccc(F)cc4)CC3)cc2o1 | inactive | – | minimal effective dose (Rattus norvegicus [2]): 30 mg/kg
9 | – | Fc1ccc(CC2CCN(CC#Cc3ccc4[nH]c(S)nc4c3)CC2)cc1 | inactive | inactive | –
10 | – | CC1CC(Cc2ccc(F)cc2)CC(C)N1CC#Cc1ccc2[nH]c(O)nc2c1 (stereo not drawn) | inactive | inactive | –
11 | 24 nM | Oc1nc2ccc(C#CCN3CCC(O)(Cc4ccc(F)cc4)CC3)cc2s1 | inactive | inactive | –
12 | 21 nM | Oc1nc2cc(C#CCN3CCC(O)(Cc4ccc(F)cc4)CC3)ccc2[nH]1 | inactive | inactive | –
13 | – | Cc1c(C#CCN2CCC(Cc3ccc(F)cc3)CC2)cc2nc(O)[nH]c2c1C | inactive | inactive | –
14 | 14 nM | Oc1nc2cc(C#CCN3CCC(Cc4cccc(F)c4)CC3)ccc2[nH]1 | inactive | inactive | –
15 | 19 nM | Fc1ccc(CC2CCN(CC#Cc3ccc4[nH]c(=S)[nH]c4c3)CC2)cc1 | – | – | –
16 | – | CC(C)(C#Cc1ccc2[nH]c(O)nc2c1)N1CCC(Cc2ccc(F)cc2)CC1 | inactive | inactive | –

Row | IC50 [5] | SMILES | MED (Rattus norvegicus [1]) | MED (Rattus norvegicus [3]) | other results
17 | 20 nM | Cc1cc(C#CCN2CCC(Cc3ccc(F)cc3)CC2)cc2[nH]c(=O)[nH]c12 | – | – | –
18 | – | Oc1nc2cc(C#CCN3CCC(Cc4ccc(F)cc4)CC3)ccc2[nH]1 | – | – | minimal effective dose (Rattus norvegicus [1]; po, read-out: MED): 10 mg/kg; minimal effective dose (Rattus norvegicus [2]): 10 mg/kg
19 | 4 nM | Cc1cc2[nH]c(=O)[nH]c2cc1C#CCN1CCC(Cc2ccc(F)cc2)CC1 | – | – | –
20 | 2 nM | O=c1[nH]c2cc(C#CCN3CCC(Cc4ccc(F)cc4)CC3)cnc2[nH]1 | – | – | –
21 | – | Oc1nc2c(C#CCN3CCC(Cc4ccc(F)cc4)CC3)cccc2[nH]1 | inactive | inactive | –
22 | 9 nM | COc1cc2[nH]c(=O)[nH]c2cc1C#CCN1CCC(Cc2ccc(F)cc2)CC1 | – | – | –
23 | 157 nM | CC1CC(Cc2ccc(F)cc2)CC(C)N1CC#Cc1ccc2[nH]c(=O)[nH]c2c1 (stereo not drawn) | – | – | –
24 | 142 nM | O=c1[nH]c2ccc(C#CCN3CCC(=Cc4ccc(F)cc4)CC3)cc2[nH]1 | – | – | –
25 | – | Oc1nc2cc(C#CCN3CCC(=Cc4ccc(F)cc4)CC3)ccc2[nH]1 | inactive | inactive | –
26 | – | Cc1cc2[nH]c(O)nc2cc1C#CCN1CCC(Cc2ccc(F)cc2)CC1 | inactive | inactive | –
27 | 56 nM | O=C1Cc2cc(C#CCN3CCC(Cc4ccc(F)cc4)CC3)ccc2N1 | inactive | inactive | –
28 | 284 nM | O=c1[nH]c2cccc(C#CCN3CCC(Cc4ccc(F)cc4)CC3)c2[nH]1 | – | – | –
29 | – | Oc1nc2c(C(F)(F)F)cc(C#CCN3CCC(Cc4ccc(F)cc4)CC3)cc2[nH]1 | inactive | inactive | IC50 [6]: Not Active
30 | – | Oc1nc2cc(C#CCN3CCC(CCc4ccc(F)cc4)CC3)ccc2[nH]1 | inactive | inactive | –
31 | – | Oc1nc2cc(C#CCN3CCC(Cc4ccc(F)cc4)CC3)c[nH]c-2n1 | inactive | inactive | –

Row | SMILES | IC50 [5] | MED (Rattus norvegicus [1]) | MED (Rattus norvegicus [3]) | other results
32 | CC(C)(C#Cc1ccc2[nH]c(=O)[nH]c2c1)N1CCC(Cc2ccc(F)cc2)CC1 | > 1000 nM | – | – | –

Source: ChEMBL document CHEMBL1147596, “Subtype selective NMDA receptor antagonists: evaluation of some novel alkynyl analogues” (Bioorg Med Chem Lett, 2004)
